Experimental data reported in patent US8012985B2, “Compounds with antiparasitic activity and medicines containing same” (Centre National de la Recherche Scientifique (C.N.R.S.), priority 2002, dated 2011).
Counter-ions that a name gives are not always drawn. Like-named read-outs stand apart in the source and are kept apart here. Marks after values point to notes of the source that are not given here.

Experiments:
P. falciparum = test: Antimalarial activity in vitro against P. falciparum (Desjardins test, [3H] hypoxanthine incorporation); assay type: cell-based; settings: growth in vitro of P. falciparum
Description: FIG. 1 represents the antimalarial activity of compound 6.0 as a function of the drug concentration, according to Desjardins' test, (Desjardins R. E. et al., Antimicrob. Agents Chemother. 1979, 16, 710-718).
(§1) A. Antimalarial Activity In Vitro Against P. Falciparum and In Vivo in Mice Infected with P. Vinckei
(§2) Tables 4 and 5 hereafter show the results of the IC50 values in μM and of ED50 (mg/kg) obtained with compounds of the invention.
(§3) The IC50 is the concentration which inhibits 50% of the growth in vitro of P. falciparum (the IC50 measurements were determined according to the method of Desjardins in which the incorporation of [^3H] hypoxanthine in the nucleic acids serves as a cell viability index) (FIG. 1), the ED50 is the effective dose for inhibiting 50% of the growth in vivo of P. vinckei according to a 4-day suppression test.

P. vinckei = test: Antimalarial activity in vivo in mice infected with P. vinckei, 4-day suppression test; settings: for ED50: Plasmodium vinckei, 96 h
Protocol: as §1, §2, §3
TI corresponds to the therapeutic index, TI=LD50 (semi chronic)/ED50; ip: intraperitoneal administration; po: per os.

Babesia divergens = test: Antibabesia activity in vitro against Babesia divergens; assay type: cell-based
Protocol: (§4) The products 6.0, 22.0, and 2.0 were also evaluated in vitro for their activities against Babesia divergens and B. canis.

B. canis = test: Antibabesia activity in vitro against B. canis; assay type: cell-based
Protocol: as §4

[1] = parameters: species or system mice; settings: mouse, in vivo
Protocol: The results are given hereafter of the pharmacokinetic parameters after administration by intra-peritoneal or oral route in mice for compound 6.0.
For determination of the serum level, bio-tests were used ex vivo: briefly, the medicament is administered to the animal, then blood samples are repeatedly taken. The sera are decomplemented for 30 minutes at 56° C. The active metabolite content is then determined by incubation of different concentrations (dichotomous dilution) of each serum, in the presence of suspensions of erythrocytes infected with P. falciparum, according to the method of DESJARDINS with [^3H] hypoxanthine.
The results are expressed in IS50, which corresponds to the percentage of serum (containing an active metabolite) capable of inhibiting 50% of the growth of P. falciparum.
This value is then converted into serum concentration (usually expressed in ng/ml), by testing the active compound directly (without passing via the animal), on the same suspension infected with P. falciparum and by determining its IC50 value (in ng/ml) [serum count ═IC50] (in ng/ml)×100/SI50 (in %)].
The results are expressed in log (serum count of medicaments), as a function of time, which allows the evaluation of the half-time for the distribution to the serum compartment t1/2(d); the half-time for the elimination of the serum compartment (t1/2(e)); of C0, corresponding to the serum count extrapolated to the origin in the elimination phase; of AUC (which indicates the quantity of drug circulating in the bloodstream); and the relative bio-availability in the administration method by oral route, versus the method by intraperitoneal route [AUC (po)/AUC (ip)] which signifies the degree of absorption by oral route.

[2] = ip, tested after 2 administrations of the compound per day for 4 days
[3] = po, tested after 2 administrations of the compound per day for 4 days

Q: What does the source list for O=c1[nH]c(CCCCCCCCCCCCc2nsc(=O)[nH]2)ns1 [Compound 1.30, 1,12-bis[(1.2,4-thiadiazol-5(4H)-one)-3-yl]dodecane]?
A: IC50 (P. falciparum): 20 nM; ED50 (mg/Kg) P. vinckei (P. vinckei; ip, 4-day suppression test): ip = 20 mg/Kg

Q: With N=C1CCCN1CCCCCCCCCCCCN1CCCC1=N [Compound 24.0, 1,12-bis[N,N′-(2-iminopyrrolidinyl)]dodecane] as the molecule, how does the IC50 (P. falciparum) read?
A: 4 nM

Q: With CC(C)(C)OC(=O)N=C(NCCCCCCCCCCCCNC(=NC(=O)OC(C)(C)C)NC(=O)OC(C)(C)C)NC(=O)OC(C)(C)C [Compound 12.2, 1,12-bis(N,N′-di-tert-butyloxycarbonylguanidino)dodecane] as the molecule, how does the IC50 (P. falciparum) read?
A: 1900 nM

Q: With CC(=O)ON=C(N)CCCCCCCCCCCCC(N)=NOC(C)=O [Compound 1.22, 1,12-bis(N,N′-acetoxyamidinyl)dodecane] as the molecule, how does the IC50 (P. falciparum) read?
A: 1400 nM

Q: With CC(=N)NCCCCCCCCCCCCNC(C)=N [Compound 20.0, 1,12-bis(N,N′-acetamidinyl)dodecane] as the molecule, how does the IC50 (P. falciparum) read?
A: 2 nM

Q: And the “ED50 (mg/Kg) P. vinckei” value (P. vinckei; [2])?
A: ip = 2.3* mg/Kg

Q: For “1,12-bis[N,N′-(benzyloxycarbonyl)amidinyl]dodecane [Compound 1.5]”, which IC50 (P. falciparum) is on record?
A: 400 nM

Q: Which results are given for Cc1noc(=O)n1CCCCCCCCCCCCn1c(C)noc1=O [Compound 20.14, 1,12-bis[N,N′(3-methyl-1,2,4-oxadiazol-5(4H)-one)-3-yl]dodecane]?
A: IC50 (P. falciparum; Plasmodium falciparum): 7100 nM; ED50 (P. vinckei; ip, 4-day suppression test): 9 mg/kg; ED50 (P. vinckei; po, 4-day suppression test): 62 mg/kg

Q: Which IC50 (P. falciparum) does the source give for “1,12-bis[N,N′-(isobutyloxycarbonyl)amidinyl]dodecane [Compound 1.4]” here?
A: 500 nM

Q: Which IC50 (P. falciparum) does the source give for NC(CCCCCCCCCCCCC(N)=NOC(=O)c1ccccc1)=NOC(=O)c1ccccc1 [Compound 1.23, 1,12-bis(N,N′-benzoyloxyamidinyl)dodecane] here?
A: 1100 nM

Q: Which IC50 (P. falciparum; Plasmodium falciparum) does the source give for N=C(CCCCCCCCCCCCC(=N)N1CCCCC1)N1CCCCC1 [Compound 3.0, 1,14-di(piperidin-1-yl)tetradecane-1,14-diimine] here?
A: 4.9 nM

Q: With CON=C(N)CCCCCCCCCCCCC(N)=NOC [Compound 1.16, 1,12-bis(N,N′-methoxyamidinyl)dodecane] as the molecule, how does the IC50 (P. falciparum) read?
A: 6800 nM

Q: For CS(=O)(=O)OCC(=N)NCCCCCCCCCCCCNC(=N)COS(C)(=O)=O [Compound 20.12, 1,12-bis(N,N′-methylsulfonyloxyacetamidinyl)dodecane], which “ED50 (mg/Kg) P. vinckei” value (P. vinckei; ip, 4-day suppression test) is on record?
A: ip = 4.7 mg/Kg

Q: And the “ED50 (mg/Kg) P. vinckei” value (P. vinckei; po, 4-day suppression test)?
A: po = 42 mg/Kg

Q: For O=S1NC(CCCCCCCCCCCCC2=NOS(=O)N2)=NO1 (stereo not drawn) [Compound 1.28, 1,12-bis[(1.2,3,5-oxathiadiazol-2(3H)-oxide)-4-yl]dodecane], which IC50 (P. falciparum) is on record?
A: 200 nM

Q: Which IC50 (P. falciparum) does the source give for CCOC(=O)NC(=N)CCCCCCCCCCCCC(=N)NC(=O)OCC [Compound 1.2, 1,12-bis[N,N′-(ethyloxycarbonyl)amidinyl]dodecane] here?
A: 300 nM

Q: What about the “ED50 (mg/Kg) P. vinckei” value (P. vinckei; ip, 4-day suppression test) of the same molecule?
A: ip 33 mg/Kg

Q: Which IC50 (P. falciparum) does the source give for O=C(OCc1ccccc1)N1CCN=C1CCCCCCCCCCCCC1=NCCN1C(=O)OCc1ccccc1 [Compound 6.5, 1,12-bis[N,N′-(benzyloxycarbonyl)imidazolin-2-yl]dodecane] here?
A: 12000 nM

Q: And the “ED50 (mg/Kg) P. vinckei” value (P. vinckei; [2])?
A: ip < 20* mg/Kg

Q: And the “ED50 (mg/Kg) P. vinckei” value (P. vinckei; [3])?
A: po ≈ 100* mg/Kg

Q: Which results are given for “1,12-bis(N,N′-methoxyacetamidinyl)dodecane [Compound 20.2]”?
A: IC50 (P. falciparum): 4350 nM; ED50 (mg/Kg) P. vinckei (P. vinckei; ip, 4-day suppression test): ip = 10 mg/Kg; ED50 (mg/Kg) P. vinckei (P. vinckei; po, 4-day suppression test): po = 110 mg/Kg

Q: For CCOC(=O)ON=C(N)CCCCCCCCCCCCC(N)=NOC(=O)OCC [Compound 1.17, 1,12-bis(N,N′-ethoxycarbonyloxyamidinyl)dodecane], which IC50 (P. falciparum) is on record?
A: 1200 nM

Q: Which IC50 (Babesia divergens) does the source give for N=C(CCCCCCCCCCCCC(=N)N1CCCC1)N1CCCC1 [Compound 2.0, 2 HCl, 1,14-di(pyrrolidin-1-yl)tetradecane-1,14-diimine] here?
A: < 50 nM

Q: What about the IC50 (B. canis) of the same molecule?
A: < 50 nM

Q: Which IC50 (P. falciparum) does the source give for NC(CCCCCCCCCCCCC(N)=NO)=NO [Compound 1.15, 1,12-bis(N,N′-hydroxyamidinyl)dodecane] here?
A: 3500 nM

Q: What about the “ED50 (mg/Kg) P. vinckei” value (P. vinckei; po, 4-day suppression test) of the same molecule?
A: po = 120 mg/Kg

Q: With CC1(C)CN=C(NCCCCCCCCCCCCNC2=NCCC2)NC1 [25.0, 2 TFA] as the molecule, how does the IC50 (P. falciparum) read?
A: 1.9 nM

Q: For O=C(Oc1ccc(F)cc1)N1CCN=C1CCCCCCCCCCCCC1=NCCN1C(=O)Oc1ccc(F)cc1 [Compound 6.8, 1,12-bis[N,N′-(4-fluorophenylyloxycarbonyl)imidazolin-2-yl]dodecane], which IC50 (P. falciparum) is on record?
A: 69500 nM

Q: Which IC50 (P. falciparum) does the source give for C(CCCCCCC1=NCCN1)CCCCCC1=NCCN1 [Compound 6.0, 1,12-bis(imidazolin-2-yl)dodecane] here?
A: 2 nM

Q: What about the “ED50 (mg/Kg) P. vinckei” value (P. vinckei; [2]) of the same molecule?
A: ip = 34* mg/Kg

Q: What about the “ED50 (mg/Kg) P. vinckei” value (P. vinckei; [3]) of the same molecule?
A: po = 62* mg/Kg

Q: With CCNC(=O)ON=C(N)CCCCCCCCCCCCC(N)=NOC(=O)NCC [Compound 1.24, 1,12-bis(N,N′-ethylcarbamoyloxyamidinyl)dodecane] as the molecule, how does the IC50 (P. falciparum) read?
A: 200 nM

Q: And the “ED50 (mg/Kg) P. vinckei” value (P. vinckei; po, 4-day suppression test)?
A: po = 90 mg/Kg

Q: Which results are given for C(CCCCCCNC1=NCCC1)CCCCCNC1=NCCC1 [Compound 21.0, 1,12-bis[N,N′-(3,4-dihydro-2H-pyrrol-5-yl)amino]dodecane]?
A: IC50 (P. falciparum): 3.8 nM; ED50 (mg/Kg) P. vinckei (P. vinckei; [2]): ip = 2.8* mg/Kg; ED50 (mg/Kg) P. vinckei (P. vinckei; [3]): po = 85* mg/Kg; C0 ([1]; ip, 15 mg/kg): 24 ng/mL; t1/2 ([1]; ip, 15 mg/kg): approximately 35 hours; C0 ([1]; po, 100 mg/kg): 16 ng/mL; apparent t1/2 ([1]; po, 100 mg/kg): 36 h

Q: Which IC50 (P. falciparum) does the source give for NC(CCCCCCCCCCCCC(N)=NOC(=O)Oc1ccccc1)=NOC(=O)Oc1ccccc1 [Compound 1.19, 1,12-bis(N,N′-phenoxycarbonyloxyamidinyl)dodecane] here?
A: 3600 nM

Q: Which IC50 (P. falciparum) does the source give for O=c1[nH]c(CCCCCCCCCCCCc2noc(=O)[nH]2)no1 [Compound 1.27, 1,12-bis[(1.2,4-oxadiazol-5(4H)-one)-3-yl]dodecane] here?
A: 9200 nM

Q: Which IC50 (P. falciparum) does the source give for COC(=O)ON=C(N)CCCCCCCCCCCCC(N)=NOC(=O)OC [Compound 1.18, 1,12-bis(N,N′-methoxycarbonyloxyamidinyl)dodecane] here?
A: 1100 nM
